Experimental data reported in ChEMBL document CHEMBL1201862, “PubChem BioAssay data set” (2004).
Calls of active or inactive are those of the source.

Legend:
[1] = target: Dual specificity protein kinase CLK1 (Homo sapiens, UniProt P49759); test: inhibition of human CLK1 activity – biochemical, cherry-picked samples, selectivity assay for Dyrk1A inhibitor project, dose response (AID 588811)
[2] = target: Serine/threonine-protein phosphatase (Candida dubliniensis (strain CD36 / CBS 7987 / NCPF 3949 / NRRLY-17841) (Yeast), UniProt B9W6M3); test: blockers of CaCl2-induced CDRE-lacZ signaling – S. cerevisiae, luminescence, secondary, dose response (AID 2388); assay type: functional, cell-based;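 note: yeast reporter cells carrying a calcineurin-responsive lacZ construct stimulated with calcium chloride; luminescent beta-galactosidase reporter signal in whole cells rather than isolated phosphatase activity; potency for inhibition where a drop in reporter signal means calcineurin blockade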
Sequence of Serine/threonine-protein phosphatase (B9W6M3 whole entry): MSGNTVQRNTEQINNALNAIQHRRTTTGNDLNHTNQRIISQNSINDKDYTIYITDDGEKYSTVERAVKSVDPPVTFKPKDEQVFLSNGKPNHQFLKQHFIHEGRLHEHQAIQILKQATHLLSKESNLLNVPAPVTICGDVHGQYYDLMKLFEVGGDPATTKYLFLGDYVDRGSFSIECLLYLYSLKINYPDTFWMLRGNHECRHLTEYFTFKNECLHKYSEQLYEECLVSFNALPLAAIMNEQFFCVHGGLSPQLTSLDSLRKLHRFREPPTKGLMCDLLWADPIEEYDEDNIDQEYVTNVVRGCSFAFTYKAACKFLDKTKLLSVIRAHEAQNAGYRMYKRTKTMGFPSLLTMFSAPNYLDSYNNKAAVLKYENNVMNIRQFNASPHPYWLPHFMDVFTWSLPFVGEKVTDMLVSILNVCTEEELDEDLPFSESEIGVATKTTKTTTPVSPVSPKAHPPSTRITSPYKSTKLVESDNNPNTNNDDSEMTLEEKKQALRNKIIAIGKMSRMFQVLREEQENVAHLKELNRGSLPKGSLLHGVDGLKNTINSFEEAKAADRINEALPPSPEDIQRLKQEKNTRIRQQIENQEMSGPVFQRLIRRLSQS

[3] = target: ATP-dependent molecular chaperone HSP82 (Candida albicans (strain WO-1) (Yeast), UniProt C4YTQ8); test: steroid-induced GRE reporter decrease in yeast – S. cerevisiae, luminescence, Hsp90 inhibitor project, dose response (AID 2400); assay type: functional, cell-based;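 note: beta-galactosidase luminescence from glucocorticoid response element reporter as proxy for Hsp90 function; inhibitor potency where signal loss means Hsp90 inhibition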
Sequence of ATP-dependent molecular chaperone HSP82 (C4YTQ8 whole entry): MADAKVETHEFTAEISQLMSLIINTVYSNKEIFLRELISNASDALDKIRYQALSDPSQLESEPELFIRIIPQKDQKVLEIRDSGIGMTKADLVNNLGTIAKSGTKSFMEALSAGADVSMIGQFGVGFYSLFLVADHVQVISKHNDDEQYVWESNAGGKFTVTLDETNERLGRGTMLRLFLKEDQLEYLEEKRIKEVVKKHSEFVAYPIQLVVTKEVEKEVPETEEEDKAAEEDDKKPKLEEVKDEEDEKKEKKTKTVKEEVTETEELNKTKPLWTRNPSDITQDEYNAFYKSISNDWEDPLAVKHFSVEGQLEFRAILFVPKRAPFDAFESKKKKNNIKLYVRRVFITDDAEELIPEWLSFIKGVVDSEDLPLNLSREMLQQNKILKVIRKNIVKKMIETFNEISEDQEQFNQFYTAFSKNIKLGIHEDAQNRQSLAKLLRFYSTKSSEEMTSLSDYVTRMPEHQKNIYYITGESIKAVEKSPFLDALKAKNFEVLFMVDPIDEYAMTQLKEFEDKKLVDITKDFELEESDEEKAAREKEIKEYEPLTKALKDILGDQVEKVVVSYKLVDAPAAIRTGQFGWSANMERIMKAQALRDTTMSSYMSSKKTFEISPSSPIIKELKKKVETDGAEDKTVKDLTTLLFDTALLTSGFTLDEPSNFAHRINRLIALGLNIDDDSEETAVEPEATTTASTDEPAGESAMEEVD

Streptokinase A = target: T1, Streptokinase A (Streptococcus pyogenes serotype M1, UniProt P10520); test: viability-normalized secreted streptokinase activity reduction – plasminogen activation absorbance, OD405, dose response (AID 1914); assay type: functional, Streptococcus pyogenes M1 GAS;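 note: secreted streptokinase activity via plasminogen activation per viability signal from cell pellet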
T1 sequence (P10520 whole entry): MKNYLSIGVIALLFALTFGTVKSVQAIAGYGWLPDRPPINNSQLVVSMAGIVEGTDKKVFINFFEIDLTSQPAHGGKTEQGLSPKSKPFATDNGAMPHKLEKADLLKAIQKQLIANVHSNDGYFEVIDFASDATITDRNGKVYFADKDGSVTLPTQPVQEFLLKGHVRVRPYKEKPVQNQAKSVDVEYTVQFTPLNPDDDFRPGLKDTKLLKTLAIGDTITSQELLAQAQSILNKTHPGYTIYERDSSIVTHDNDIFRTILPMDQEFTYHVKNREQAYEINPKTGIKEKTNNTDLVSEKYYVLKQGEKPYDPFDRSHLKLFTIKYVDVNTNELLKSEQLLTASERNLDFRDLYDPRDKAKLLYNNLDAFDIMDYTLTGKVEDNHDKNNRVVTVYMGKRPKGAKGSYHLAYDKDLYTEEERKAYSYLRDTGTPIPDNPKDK

Melanocortin receptor 4 = Melanocortin receptor 4 (Homo sapiens, UniProt P32245); test: inhibitors of MC4R cAMP signaling – cell-based, TR-FRET, biased antagonists, dose response (AID 602298); assay type: functional;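 note: antagonist potency against agonist-stimulated cAMP production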
Sequence of Melanocortin receptor 4 (P32245 whole entry): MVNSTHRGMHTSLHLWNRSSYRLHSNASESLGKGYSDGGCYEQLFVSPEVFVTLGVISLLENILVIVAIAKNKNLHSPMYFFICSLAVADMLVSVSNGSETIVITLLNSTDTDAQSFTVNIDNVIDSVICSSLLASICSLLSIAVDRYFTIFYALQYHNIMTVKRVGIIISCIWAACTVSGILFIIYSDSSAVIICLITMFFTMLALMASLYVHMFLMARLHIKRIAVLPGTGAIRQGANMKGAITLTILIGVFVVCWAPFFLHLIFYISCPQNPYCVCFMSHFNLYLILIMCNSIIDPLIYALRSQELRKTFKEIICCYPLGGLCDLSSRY

[4] = cAMP pathway inhibition in counterscreen cell line – TR-FRET cAMP detection, counter-screen for MC4R biased antagonist project, dose response (AID 602305); assay type: functional, cell-based;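 note: U2OS cells stimulated with forskolin near its EC80 as the cAMP inducer; potency is for inhibition of forskolin-stimulated cAMP signaling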
Steroidogenic factor 1 = Steroidogenic factor 1 (Homo sapiens, UniProt Q13285); test: Counterscreen for inverse agonists of the liver receptor homolog-1 (LRH-1; NR5A2): Luminescence-based cell-based high throughput dose response assay to identify inverse agonists of the Steroidogenic Factor 1 Nuclear Receptor (SF1; NR5A1).; assay type: functional
Sequence of Steroidogenic factor 1 (Q13285 whole entry): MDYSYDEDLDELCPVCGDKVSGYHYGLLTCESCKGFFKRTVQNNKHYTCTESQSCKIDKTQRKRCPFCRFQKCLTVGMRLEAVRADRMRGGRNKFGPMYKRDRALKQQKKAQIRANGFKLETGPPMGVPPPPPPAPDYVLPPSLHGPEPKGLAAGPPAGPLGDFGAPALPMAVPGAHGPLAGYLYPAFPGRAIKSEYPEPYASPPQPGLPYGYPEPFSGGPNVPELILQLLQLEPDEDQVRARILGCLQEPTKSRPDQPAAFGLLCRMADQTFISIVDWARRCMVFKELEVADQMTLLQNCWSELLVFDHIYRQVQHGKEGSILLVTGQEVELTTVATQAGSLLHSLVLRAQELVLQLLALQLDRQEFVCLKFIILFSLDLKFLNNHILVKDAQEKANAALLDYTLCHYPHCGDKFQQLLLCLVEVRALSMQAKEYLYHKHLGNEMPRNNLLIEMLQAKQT

[5] = nonselective StAR promoter luciferase inhibitors – cell-based, luminescence, luciferase reporter, counter-screen for LRH-1 inverse agonist project, dose response (AID 651969); assay type: functional
[6] = target: Nuclear receptor subfamily 5 group A member 2 (Homo sapiens, UniProt O00482); assay type: functional, cell-based;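 note: HEK293T cells transfected with LRH-1 and a StAR promoter luciferase reporter; potency for inhibitors that lower LRH-1 driven reporter light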
Sequence of Nuclear receptor subfamily 5 group A member 2 (O00482 whole entry): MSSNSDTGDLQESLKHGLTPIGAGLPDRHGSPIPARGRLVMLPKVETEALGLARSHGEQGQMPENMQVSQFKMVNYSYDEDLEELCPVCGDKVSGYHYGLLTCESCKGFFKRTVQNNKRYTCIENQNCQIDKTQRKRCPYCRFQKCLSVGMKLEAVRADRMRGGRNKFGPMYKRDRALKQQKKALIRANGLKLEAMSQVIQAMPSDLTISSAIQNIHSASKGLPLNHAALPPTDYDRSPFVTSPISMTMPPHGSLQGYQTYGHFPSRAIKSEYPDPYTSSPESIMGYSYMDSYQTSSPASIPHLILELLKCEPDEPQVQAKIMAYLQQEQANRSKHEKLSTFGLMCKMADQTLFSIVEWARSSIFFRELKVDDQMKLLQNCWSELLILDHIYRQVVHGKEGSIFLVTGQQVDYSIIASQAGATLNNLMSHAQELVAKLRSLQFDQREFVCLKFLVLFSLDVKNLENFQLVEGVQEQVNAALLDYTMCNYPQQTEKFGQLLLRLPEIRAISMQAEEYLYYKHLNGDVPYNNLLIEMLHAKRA

[7] = bead-based luminescence quenchers, dual-tagged ARNT – biochemical, AlphaScreen, cherry-pick, artefact control for ARNT-TACC3 interaction inhibitor project, dose response (AID 651705); assay type: functional;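 note: AlphaScreen bead proximity signal that flags compounds interfering with the detection technology; potency reflects signal decrease which marks the compound as an assay artifact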
H9c2 = test: cells; assay type: functional, cell-based; conditions: Rattus norvegicus, H9c2, Myocardium;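 note: confirmatory concentration-response retest of ultra-high-throughput screening hits for modulation of myocardial damage; cell death induced by hydrogen peroxide oxidative stress; compound pretreatment for 60 min then peroxide exposure for 2 h; potency is for protecting the cells against peroxide damage rather than for killing them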
[8] = target: T2, Sentrin-specific protease 8 (Homo sapiens, UniProt Q96LD8); assay type: functional
T2 sequence (Q96LD8 whole entry): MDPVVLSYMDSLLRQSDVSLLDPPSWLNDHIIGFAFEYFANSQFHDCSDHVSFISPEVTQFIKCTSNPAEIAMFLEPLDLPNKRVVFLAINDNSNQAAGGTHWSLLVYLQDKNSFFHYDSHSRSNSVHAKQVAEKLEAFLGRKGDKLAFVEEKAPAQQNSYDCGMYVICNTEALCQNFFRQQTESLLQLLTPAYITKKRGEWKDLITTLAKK

[9] = target: T3, Mitochondrial peptide methionine sulfoxide reductase (Bos taurus, UniProt P54149); assay type: functional;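 for IC50: absorbance read-out, biochemical high-throughput dose-response screen for MsrA inhibitors, confirmatory; recombinant bovine MsrA coupled to E. coli TrxB with NADPH and selenocystamine; potency is for inhibitors of MsrA activity on DMSO substrate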
T3 sequence (P54149 whole entry): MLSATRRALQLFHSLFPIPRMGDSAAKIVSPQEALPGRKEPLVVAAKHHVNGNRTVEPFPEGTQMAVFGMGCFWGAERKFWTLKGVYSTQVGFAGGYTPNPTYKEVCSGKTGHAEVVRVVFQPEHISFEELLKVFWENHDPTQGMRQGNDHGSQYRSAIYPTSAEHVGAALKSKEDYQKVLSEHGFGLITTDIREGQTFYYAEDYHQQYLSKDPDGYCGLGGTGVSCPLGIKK

[10] = target: T3, Mitochondrial peptide methionine sulfoxide reductase; test: Absorbance-based biochemical high throughput dose response assay for activators of Methionine sulfoxide reductase A (MsrA).; assay type: functional
[11] = target: Histone-lysine N-methyltransferase NSD2 (Homo sapiens, UniProt O96028); assay type: biochemical
Sequence of Histone-lysine N-methyltransferase NSD2 (O96028 whole entry): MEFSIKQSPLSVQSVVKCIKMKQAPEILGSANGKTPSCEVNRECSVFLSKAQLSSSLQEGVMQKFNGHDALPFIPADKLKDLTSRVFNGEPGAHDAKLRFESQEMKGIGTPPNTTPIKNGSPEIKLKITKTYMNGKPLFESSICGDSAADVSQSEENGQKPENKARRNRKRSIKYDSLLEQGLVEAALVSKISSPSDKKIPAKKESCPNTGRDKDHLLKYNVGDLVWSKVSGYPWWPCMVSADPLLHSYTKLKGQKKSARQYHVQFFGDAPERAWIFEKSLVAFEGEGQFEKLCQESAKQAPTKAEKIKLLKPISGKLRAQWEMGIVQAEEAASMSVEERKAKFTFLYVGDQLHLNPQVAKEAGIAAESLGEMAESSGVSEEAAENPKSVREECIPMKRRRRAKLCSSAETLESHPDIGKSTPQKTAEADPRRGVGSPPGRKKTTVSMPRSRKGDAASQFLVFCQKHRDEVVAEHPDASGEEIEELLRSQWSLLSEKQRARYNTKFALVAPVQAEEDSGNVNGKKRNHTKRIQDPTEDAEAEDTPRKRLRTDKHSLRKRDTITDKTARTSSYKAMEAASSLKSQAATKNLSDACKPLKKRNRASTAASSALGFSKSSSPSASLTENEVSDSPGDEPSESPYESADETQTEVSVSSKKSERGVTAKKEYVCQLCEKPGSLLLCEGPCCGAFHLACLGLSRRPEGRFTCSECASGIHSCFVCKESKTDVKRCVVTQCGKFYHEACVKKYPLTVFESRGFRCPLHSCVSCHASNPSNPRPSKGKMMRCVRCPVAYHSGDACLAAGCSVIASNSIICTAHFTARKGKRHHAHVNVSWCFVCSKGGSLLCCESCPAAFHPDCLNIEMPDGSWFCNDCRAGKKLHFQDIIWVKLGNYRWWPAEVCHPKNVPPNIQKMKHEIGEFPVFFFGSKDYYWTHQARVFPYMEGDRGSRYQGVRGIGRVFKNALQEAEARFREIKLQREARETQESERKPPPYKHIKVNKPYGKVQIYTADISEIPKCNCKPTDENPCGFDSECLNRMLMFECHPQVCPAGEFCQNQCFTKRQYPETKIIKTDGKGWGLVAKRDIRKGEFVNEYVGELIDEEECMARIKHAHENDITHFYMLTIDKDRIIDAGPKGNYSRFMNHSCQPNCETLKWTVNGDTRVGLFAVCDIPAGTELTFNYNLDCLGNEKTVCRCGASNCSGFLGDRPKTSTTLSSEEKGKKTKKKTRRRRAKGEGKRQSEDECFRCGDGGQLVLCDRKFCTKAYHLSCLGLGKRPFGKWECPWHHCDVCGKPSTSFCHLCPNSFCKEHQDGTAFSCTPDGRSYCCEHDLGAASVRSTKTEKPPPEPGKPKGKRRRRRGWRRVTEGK

[12] = target: T2, Sentrin-specific protease 8; assay type: functional; remark: listed apart in the source
[13] = Luminescence Cell-Based Dose Confirmation to Identify Activators of 5'UTR Stem-Loop Driven Alpha-Synuclein mRNA Translation in H4 Neuroglioblastoma Cells. [Related pubchem assays: 1829 (Project Summary), 1814 (Primary HTS)]; assay type: functional
[14] = Luminescence Cell-Based Dose Response to Identify Activators of Luciferase Translation or Activity in H4-C Neuroglioblastoma Cells. [Related pubchem assays: 1829 (Project Summary), 1814 (Primary HTS)]; assay type: functional
[15] = fluconazole-exposed Candida albicans growth modulators – fluorescence, retest, confirmation (AID 2467); assay type: functional, cell-based
[16] = Luminescence Cell-Based Dose Confirmation HTS to Identify Activators of 5'UTR Stem-Loop Driven Alpha-Synuclein mRNA Translation in H4 Neuroglioblastoma Cells. [Related pubchem assays: 1829 (Project Summary), 1814 (Primary HTS)]; assay type: functional
[17] = Luminescence Cell-Based Dose Response HTS to Identify Activators of Luciferase Translation or Activity in H4 […] Cells. [Related pubchem assays: 1829 (Project Summary), 1814 (Primary HTS)]; assay type: functional
H4 = test: Luminescence Cell-Based Dose Response HTS to Identify Activators of 5'UTR Stem-Loop Driven Prion Protein mRNA Translation in H4 Neuroglioblastoma Cells. [Related pubchem assays: 1829 (Project Summary), 1814 (Primary HTS)]; assay type: functional; conditions: Homo sapiens
[18] = NIH-3T3 fibroblast cytotoxicity, dose response, cytotoxicity control, cell-based, fluorescence, Alamar Blue, secondary assay (AID 2327); assay type: functional;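 note: NIH-3T3 mouse fibroblasts cultured with fluconazole at 8 µg/mL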
[19] = Luminescence Cell-Based Dose Response to Identify Activators of 5'UTR Stem-Loop Driven Prion Protein mRNA Translation in H4-C Neuroglioblastoma Cells. [Related pubchem assays: 1829 (Project Summary), 1814 (Primary HTS)]; assay type: functional

Sequence of Dual specificity protein kinase CLK1 (P49759 whole entry): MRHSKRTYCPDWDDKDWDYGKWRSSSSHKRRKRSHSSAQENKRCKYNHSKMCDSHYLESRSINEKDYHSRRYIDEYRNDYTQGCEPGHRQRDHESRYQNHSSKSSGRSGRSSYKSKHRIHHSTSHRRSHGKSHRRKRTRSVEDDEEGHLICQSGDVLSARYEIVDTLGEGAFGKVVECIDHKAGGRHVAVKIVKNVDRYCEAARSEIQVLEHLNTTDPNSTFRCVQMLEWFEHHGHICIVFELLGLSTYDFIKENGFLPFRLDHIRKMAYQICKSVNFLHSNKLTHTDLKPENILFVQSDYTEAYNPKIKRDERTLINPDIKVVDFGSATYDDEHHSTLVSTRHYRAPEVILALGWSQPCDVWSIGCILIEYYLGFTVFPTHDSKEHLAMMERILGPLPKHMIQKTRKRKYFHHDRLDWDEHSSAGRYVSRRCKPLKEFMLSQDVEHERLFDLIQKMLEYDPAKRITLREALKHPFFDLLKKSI

c1cncc(-c2nc(NCc3ccco3)c3ccccc3n2)c1
AC50 [1]: 17.9 µM (active)

O=C(c1cc(-c2ccccc2)n[nH]1)N1CCc2c([nH]c3ccccc23)C1c1ccccn1 (stereo unspecified)
EC50 [2]: > 180 µM (inactive) | EC50 [3]: 31.2 µM (active) | EC50 (Streptokinase A): 26.3 µM (active)

COC(=O)CSc1nnc(-c2ccc(S(=O)(=O)N3CCCCC3)cc2)o1
IC50 (Melanocortin receptor 4): > 64.6 µM (inactive) | IC50 [4]: > 64.6 µM (inactive)

Cc1no[n+]([O-])c1COc1ccc(/C=C2\NC(=S)NC2=O)cc1
IC50 (Steroidogenic factor 1): 1.34 µM (active) | IC50 [5]: 35.9 µM (inactive) | IC50 [6]: 0.578 µM (active)

CCCn1nc(C(=O)Nc2nc(-c3ccccn3)cs2)c2ccccc2c1=O
AC50 [7]: 81.7 µM (active) | IC50 (H9c2): > 79 µM (inactive)

O=[N+]([O-])c1ccc(-[n+]2nc(-c3ccccc3)nn2-c2ccccc2)cc1
IC50 [8]: 23.7 µM (active) | IC50 [9]: 35.9 µM (inactive) | EC50 [10]: > 104 µM (inactive) | AC50 [11]: 0.654 µM (active) | IC50 [12]: 5.48 µM (active)

Clc1ccc(CONc2ncnc3nonc23)c(Cl)c1
EC50 [13]: > 12 µM (not active) | EC50 [2]: > 180 µM (inactive) | EC50 [3]: 19.4 µM (active) | EC50 [14]: 0.516 µM (active) | EC50 [15]: 1.26 µM (active) | EC50 [16]: 22.4 µM (active) | EC50 [17]: < 0.1 µM (inconclusive) | EC50 (H4): 52.6 µM (active) | EC50 [18]: > 160 µM (inactive) | EC50 [19]: 1.14 µM (active)
